Measurements: patent US20240058265A1, “TREATMENT OF OCULAR DISEASES USING ENDOTHELIN RECEPTOR ANTAGONISTS” (Perfuse Therapeutics, Inc., priority 2021, published 2024)
Values after ≈ are worked out from the molar mass of the structure shown. Values joined by “and” are separate entries in the source; they are usually repeats but may differ in a detail not shown here. Equal values may be shown once. Read-outs that look alike come from different tables or passages of the source. Blank lines part the entries; values can stand above or below the compound they belong to. Where no end group is shown, it is not given here.

Tests used:
Stability in solid state = type: physicochemical; conditions: 2 h@125° C.
Text: (§1) In the above table, the physicochemical data, e.g., solubility, were obtained following standard protocols known in the field (see, e.g., Reis et al., Mini Rev Med Chem., 2010, 10(11):1071-6; Avdeef et al., Expert Opin Drug Metab Toxicol., 2005, 1(2):325-42; Bharate et al., Comb Chem High Throughput Screen., 2016, 19(6):461-9; and Jain et al., J Pharm Biomed Anal., 2013, 86:11-35.); and the biochemical data, i.e., potency for ETA/ETB, were obtained following the protocols known in the field (see, e.g., Kirkby et al., Br J Pharmacol., 2008, 153(6):1105-19; and Maguire et al., Br J Pharmacol., 2014, 171(24):5555-72.).

[1] = Pharmacokinetics after topical or oral administration in the rat; type: in vivo, Brown Norway rats
Method: After the administrations, the animals (N=2) were euthanized at different time points (e.g. 4 and 8 hours) and tissues were collected for analysis. List of tissues collected include plasma, retina/retinal pigment epithelium (RPE)/choroid, vitreous humor and aqueous humor.

ETA receptor = biological target: T1, ETA receptor (Homo sapiens, UniProt P25101); experiment: Functional potency for ETA receptor; type: biochemical
T1 sequence (P25101 21-427): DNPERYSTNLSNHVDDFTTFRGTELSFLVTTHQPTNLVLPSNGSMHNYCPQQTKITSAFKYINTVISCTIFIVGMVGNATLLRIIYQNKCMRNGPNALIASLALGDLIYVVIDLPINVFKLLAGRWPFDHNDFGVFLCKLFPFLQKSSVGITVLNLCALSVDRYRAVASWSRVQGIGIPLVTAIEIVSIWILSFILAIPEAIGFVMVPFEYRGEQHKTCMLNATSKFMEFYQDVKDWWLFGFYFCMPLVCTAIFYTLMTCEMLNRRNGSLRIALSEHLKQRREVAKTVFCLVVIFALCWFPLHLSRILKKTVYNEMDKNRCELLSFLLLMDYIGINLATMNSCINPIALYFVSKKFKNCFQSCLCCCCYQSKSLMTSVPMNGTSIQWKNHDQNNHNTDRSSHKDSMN
Text: as §1

ET-1 induced vasospasm = experiment: Rabbit ET-1 induced vasospasm model, retinal blood flow (OCT-A, FA); type: in vivo, rabbit (Oryctolagus cuniculus)
Method: Adult, male Dutch-belted rabbits were given a 20 μl intravitreal injection (IVT) of 0.5 μg of ET-1 followed by a 20 μl intravitreal injection of 10-100 μg Edonentan given 30 min after the ET-1 administration. IOP, optical coherence tomography—angiography (OCT-A), and fluorescein angiograms (FA) were performed at pre-specified time points (30, 45, 60, and 75 min) following ET-1 and Edonentan administration to assess retinal blood flow changes induced by ET-1+/−Edonentan. […] To evaluate the effect of retinal blood flow following intravitreally administered endothelin-1 (ET-1) followed by the antagonist Edonentan in the rabbit, rabbits (Oryctolagus cuniculus) were given a 20 μL intravitreal injection of ET-1 in the left eye followed by a 20 μL intravitreal injection of Edonentan at 2 (or 3) different doses (e.g. 0.1 μg, 0.5 μg, 2.5 μg). The pulse ox, tonometry, optical coherence tomography angiography (OCTA), fluorescein angiography (FA) and retinal leakage scoring were performed for evaluation.

elevated IOP rat eye = experiment: Morrison's rat model of glaucoma (RGC counts, PERG); type: in vivo, Brown Norway rats; conditions: topical eye drops 100 μg per dose, five days a week, four weeks
Text: Adult male and female retired breeder Brown Norway rats (approximate age groups of 8 to 11 months) were obtained from Envigo (Indianapolis, IN). Baseline IOP measurements and pattern electroretinogram (PERG) amplitudes were collected prior to the surgery for elevation of IOP (to ensure that the IOP and PERG amplitudes were in the expected range of values). IOP was elevated in one eye (left eye) of the rats, while the corresponding right eyes served as contralateral controls. The Morrison method to elevate IOP in rats was carried out by injection of 50 μL of hypertonic saline through the episcleral veins to sclerose the trabecular meshwork. IOP was measured twice a week throughout the entire duration of the experiment. […] After detecting an elevation of IOP for two consecutive days, topical administration of eye drops ([…] (100 μg,) per dose of the tested compounds in the IOP elevated eye) was commenced and carried out for five days a week for a total of four weeks. In the 4th week of treatment, PERG analysis was carried out and rats were sacrificed by an overdose of pentobarbital (fatal-Plus). Aqueous humor was collected from the rat eyes, frozen and shipped for analysis. Retinal flat mounts were prepared, immunostained with the RGC marker, Brn3a antibody and surviving RG-Cs were counted in two eccentricities (central and peripheral).
For this study, the Morrison's model was used to induce ocular hypertension in adult male retired breeder Brown Norway rats as previously described by. Morrison et al., (Morrison J C, Moore C G, Deppmeier L M, Gold B G, Meshul C K, Johnson E C. A rat model of chronic pressure-induced optic nerve damage. Exp Eye Res. 1997;64(1):85-96).
The immunostained retinal flat mounts were obtained to measure the retinal ganglion cell (RGC) counts. To obtain immunostained retinal flat mounts, the animals were euthanized after the treatments and then their eyes were enucleated. The eye cups were fixed overnight at 4° C. in 4% paraformaldehyde (PFA) and retinal flat mounts were prepared for collecting images. The retinal ganglion cell (RGC) counting was conducted using the images of immunostained retinal flat mounts. The images were uploaded to ImageJ, a photo editor designed for biology research (Rasband, 1997-2018) and the labeled retinal ganglion cells were counted manually in two eccentricities (central and peripheral).
Pattern ERG (PERG) was used to assess the RGC function. […] Briefly, PERG signals were acquired from a DTL-plus electrode placed on the lower part of the corneal surface and the PERG waves were analyzed using the EMWIN software (LKC). The difference between the amplitude of the major positive (P1) and negative (N2) waves were calculated to decipher the PERG amplitude.

ETA/ETB receptor = conditions: cited from earlier work
Permeability (PAMPA) = type: in vitro ADME
Text: as §1

[2] = Solubility (pH 2, pH 7, ethyl acetate); type: physicochemical
Text: as §1

[3] = Solubility of crystalline forms; type: physicochemical; conditions: room temperature, 24 hours
Method: The solubility described herein can be measured using the following procedure: • ii. Solubility Analysis Protocol • 1. No less than 2.0 mg samples are weighed into lower chamber of whatman miniuniprep vials (GE Healthcare). 450 μL of buffer was added into each chamber. • 2. Filter pistons of miniuniprep vials are placed and compressed to the position of the liquid level to allow for contact of buffer and compound with the filter during incubation. • 3. The samples are vortexed for 2 minutes followed by incubation at room temperature (about 25±2° C.) for 24 hours with shaking at 500 rpm. • 4. Miniunipreps are compressed to prepare the filtrates for injection into HPLC system. All vials are inspected for visible undissolved material before filtering and for leakage after filtering. • 5. Dilute supernatant with buffer by a factor of 100 folds to make diluents which are analyzed with HPLC.

[4] = Slurry conversion of crystalline forms (relative thermodynamic stability); type: physicochemical
Method: In an alternate method, 150 mg of Edonentan (Form 3) was added to a mixture of isopropanol and water (1 mL and 2 mL, respectively). The resulting slurry was stirred at 15° C. for 48 hours and then filtered.
In an alternate method, 200 mg of Edonentan (Form 1) was added to a mixture of isopropanol and water (1.3 mL and 2.6 mL, respectively). The resulting solution was heated to 80° C. and stirred for 24 h, then cooled and filtered.

[5] = tested on: laser-induced glaucoma eye; experiment: Laser-induced glaucoma non-human primate, intraocular pressure after topical administration; type: in vivo, rhesus macaque, Macaca Mulatta; conditions: single dose 50 μL topical 0.5% in each eye, 120 minutes
Method: Non-human primates (rhesus macaque, Macaca Mulatta) were obtained for this study. One eye of each animal underwent induction of elevation of intraocular pressure (TOP) by repeated laser photocoagulation of the trabecular meshwork. Imaging sessions were repeated to monitor the optic nerve head (ONH) and retinal structural changes. A single dose of 0.5% Timolol or a single dose of 2 mg/mL Edonentan was topically administered to three non-human primates that have laser-induced glaucoma in their right eyes (OD) with 1-week wash-out in a randomized order.

Stability in Solid State (verdict) (Stability in solid state): unstable
Stability in Solid State, remaining (Stability in solid state): about 87% remaining/
Detection in retina/RPE/choroid after oral administration ([1]; oral, 50 mg/kg): detectable
Detection in retina/RPE/choroid, aqueous humor and vitreous humor ([1]; topical eye drop 100 μg, 4 and 8 hours): detected
Functional potency for ETA and ETB receptors (rating) (ETA receptor): High potency
Specificity ETA vs ETB (rating) (ETA receptor): Low specificity
Permeability (rating) (Permeability (PAMPA)): Mid-High
Solubility in Ethyl Acetate (rating) ([2]; ethyl acetate): Good
solubility ([2]; ethyl acetate, organic solvent or mixture, read-out: Solubility in Ethyl Acetate): > 10600 µg/mL and > 18400 µM
solubility ([2]; pH 2, read-out: Solubility at pH 2): 159.8 µM (≈ 92.5 µg/mL)
Solubility at pH 7 ([2]; pH 7, amorphous form): 298.4 μM
Compound: CCCCCS(=O)(=O)N(CCC)CCN1C[C@H](c2ccc3c(c2)OCO3)[C@@H](C(=O)O)[C@@H]1c1ccc(OC)c(F)c1 [A-182086, (2R,3R,4S)-4-(2H-1,3-benzodioxol-5-yl)-2-(3-fluoro-4-methoxyphenyl)-1-[2-(N-propylpentane-1-sulfonamido)ethyl]pyrrolidine-3-carboxylic acid]
Fluorescein dye velocity as an index of retinal blood flow (ET-1 induced vasospasm; healthy rabbits, 0.5 μg ET-1 and 10 μg antagonist IVT (FIG. 3)): improved to control levels
RGC function (PERG) (elevated IOP rat eye): maintained RGC function
RGC loss (RGC counts, retinal flat mounts) (elevated IOP rat eye): prevented RGC loss
ETA/ETB selectivity (ETA/ETB receptor): 4 fold

Solubility pH 7.0 Phosphate Buffer [3]: 264 μg/mL
Compound: Cc1onc(NS(=O)(=O)c2ccccc2-c2ccc(-c3ncco3)cc2CN(C)C(=O)CC(C)(C)C)c1C [Form 1]

Solubility pH 7.0 Phosphate Buffer [3]: 35 μg/mL
Compound: Cc1onc(NS(=O)(=O)c2ccccc2-c2ccc(-c3ncco3)cc2CN(C)C(=O)CC(C)(C)C)c1C [Form 2]

Solubility pH 7.0 Phosphate Buffer [3]: 251 μg/mL
Compound: Cc1onc(NS(=O)(=O)c2ccccc2-c2ccc(-c3ncco3)cc2CN(C)C(=O)CC(C)(C)C)c1C [Form 3]

Solubility pH 7.0 Phosphate Buffer [3]: 138 μg/mL
Compound: Cc1onc(NS(=O)(=O)c2ccccc2-c2ccc(-c3ncco3)cc2CN(C)C(=O)CC(C)(C)C)c1C [Form 4]
Relative thermodynamic stability of crystalline form ([4]; isopropanol and water, 80° C., 24 h): more thermodynamically stable than Form 1
Relative thermodynamic stability of crystalline form ([4]; slurry in isopropanol and water, 15° C., 48 hours): more thermodynamically stable than Form 3

Compound: CC(C)(C)NC[C@H](O)COc1nsnc1N1CCOCC1 [Timolol, reference compound]
IOP reduction from pre-dose to post-dose ([5]; Control 1): about 20%
IOP reduction from pre-dose to post-dose ([5]; Control 2): about 30%

Compound: ET-1: Endothelin-1, given intravitreally to induce vasospasm in rabbit retina (CSCSSLMDKECVYFCHLDIIW; ends and bridges not checked; cysteine pairing not given here; UniProt P05305 53-73, looked up) [reference compound]
Vasoconstriction in the retinal vascular beds (ET-1 induced vasospasm; 0.5 μg ET-1 IVT, within 45 min): induced a clear vasoconstriction
